test system: BT-549; assay: normalised response (% of control), CellTiter-Glo; higher = more viable cells (100 = DMSO, 0 = benzethonium chloride kill control); details: incubation time: 72 h
Procedure: (§1)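 DSRT, 72 h incubation, CellTox Green / CellTiter-Glo readout. Signal is normalised to DMSO and benzethonium chloride controls. Value is the normalised response at dose 3.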

| Structure (SMILES) | normalised response [%] |
| --- | --- |
| O=C(O)CCCc1ccc(N(CCCl)CCCl)cc1 [Chlorambucil] (100 nM) | 108 |
| c1ccc([C@H]2CN3CCSC3=N2)cc1 [Levamisole] (100 nM) | 98.3 |
| Cn1cncc1[C@@](N)(c1ccc(Cl)cc1)c1ccc2c(c1)c(-c1cccc(Cl)c1)cc(=O)n2C [Tipifarnib] (100 nM) | 86.9 |
| CC(C)(C#N)c1cc(Cn2cncn2)cc(C(C)(C)C#N)c1 [Anastrozole] (100 nM) | 104 |
| CN(C)CCN1C(=O)c2cccc3cc(N)cc(c23)C1=O [Amonafide] (100 nM) | 106 |
| CNNCc1ccc(C(=O)NC(C)C)cc1 [Procarbazine] (100 nM) | 109 |
| Nc1ncnc2c1c(COc1cccc(Cl)c1)nn2C1CCOCC1 (100 nM) | 98.8 |

test system: CAL-120; assay: as above; details: incubation time: 72 h
Procedure: as §1

| Structure (SMILES) | normalised response [%] |
| --- | --- |
| Nc1nc(OCc2cc(Br)cs2)c2[nH]cnc2n1 [Lomeguatrib] (100 nM) | 99.2 |
| CN1CCN(CCOc2cc(OC3CCOCC3)c3c(Nc4c(Cl)ccc5c4OCO5)ncnc3c2)CC1 [Saracatinib] (100 nM) | 95.1 |
| O=C(O)CCCc1ccc(N(CCCl)CCCl)cc1 [Chlorambucil] (100 nM) | 96.6 |
| c1ccc([C@H]2CN3CCSC3=N2)cc1 [Levamisole] (100 nM) | 104 |
| Cn1cncc1[C@@](N)(c1ccc(Cl)cc1)c1ccc2c(c1)c(-c1cccc(Cl)c1)cc(=O)n2C [Tipifarnib] (100 nM) | 89.3 |
| CC(C)(C#N)c1cc(Cn2cncn2)cc(C(C)(C)C#N)c1 [Anastrozole] (100 nM) | 101 |
| CN(C)CCN1C(=O)c2cccc3cc(N)cc(c23)C1=O [Amonafide] (100 nM) | 100 |
| CNNCc1ccc(C(=O)NC(C)C)cc1 [Procarbazine] (100 nM) | 106 |
| Nc1ncnc2c1c(COc1cccc(Cl)c1)nn2C1CCOCC1 (100 nM) | 101 |

test system: CAL-148; assay: as above; details: incubation time: 72 h
Procedure: as §1

| Structure (SMILES) | normalised response [%] |
| --- | --- |
| Nc1nc(OCc2cc(Br)cs2)c2[nH]cnc2n1 [Lomeguatrib] (100 nM) | 102 |
| CN1CCN(CCOc2cc(OC3CCOCC3)c3c(Nc4c(Cl)ccc5c4OCO5)ncnc3c2)CC1 [Saracatinib] (100 nM) | 98.5 |
| O=C(O)CCCc1ccc(N(CCCl)CCCl)cc1 [Chlorambucil] (100 nM) | 107 |
| c1ccc([C@H]2CN3CCSC3=N2)cc1 [Levamisole] (100 nM) | 114 |
| Cn1cncc1[C@@](N)(c1ccc(Cl)cc1)c1ccc2c(c1)c(-c1cccc(Cl)c1)cc(=O)n2C [Tipifarnib] (100 nM) | 85.3 |
| CC(C)(C#N)c1cc(Cn2cncn2)cc(C(C)(C)C#N)c1 [Anastrozole] (100 nM) | 98.8 |
| CN(C)CCN1C(=O)c2cccc3cc(N)cc(c23)C1=O [Amonafide] (100 nM) | 93.8 |
| CNNCc1ccc(C(=O)NC(C)C)cc1 [Procarbazine] (100 nM) | 104 |
| Nc1ncnc2c1c(COc1cccc(Cl)c1)nn2C1CCOCC1 (100 nM) | 109 |

test system: CAL-51; assay: as above; details: incubation time: 72 h
Procedure: as §1

| Structure (SMILES) | normalised response [%] |
| --- | --- |
| Nc1nc(OCc2cc(Br)cs2)c2[nH]cnc2n1 [Lomeguatrib] (100 nM) | 84.8 |
| CN1CCN(CCOc2cc(OC3CCOCC3)c3c(Nc4c(Cl)ccc5c4OCO5)ncnc3c2)CC1 [Saracatinib] (100 nM) | 106 |
| O=C(O)CCCc1ccc(N(CCCl)CCCl)cc1 [Chlorambucil] (100 nM) | 79.5 |
| c1ccc([C@H]2CN3CCSC3=N2)cc1 [Levamisole] (100 nM) | 101 |
| Cn1cncc1[C@@](N)(c1ccc(Cl)cc1)c1ccc2c(c1)c(-c1cccc(Cl)c1)cc(=O)n2C [Tipifarnib] (100 nM) | 72 |
| CC(C)(C#N)c1cc(Cn2cncn2)cc(C(C)(C)C#N)c1 [Anastrozole] (100 nM) | 67.3 |
| CN(C)CCN1C(=O)c2cccc3cc(N)cc(c23)C1=O [Amonafide] (100 nM) | 79.1 |
| CNNCc1ccc(C(=O)NC(C)C)cc1 [Procarbazine] (100 nM) | 102 |
| Nc1ncnc2c1c(COc1cccc(Cl)c1)nn2C1CCOCC1 (100 nM) | 84.5 |

test system: CAL-85-1; assay: as above; details: incubation time: 72 h
Procedure: as §1

| Structure (SMILES) | normalised response [%] |
| --- | --- |
| Nc1nc(OCc2cc(Br)cs2)c2[nH]cnc2n1 [Lomeguatrib] (100 nM) | 101 |
| CN1CCN(CCOc2cc(OC3CCOCC3)c3c(Nc4c(Cl)ccc5c4OCO5)ncnc3c2)CC1 [Saracatinib] (100 nM) | 102 |
| O=C(O)CCCc1ccc(N(CCCl)CCCl)cc1 [Chlorambucil] (100 nM) | 105 |
| c1ccc([C@H]2CN3CCSC3=N2)cc1 [Levamisole] (100 nM) | 103 |
| Cn1cncc1[C@@](N)(c1ccc(Cl)cc1)c1ccc2c(c1)c(-c1cccc(Cl)c1)cc(=O)n2C [Tipifarnib] (100 nM) | 104 |
| CC(C)(C#N)c1cc(Cn2cncn2)cc(C(C)(C)C#N)c1 [Anastrozole] (100 nM) | 98.6 |
| CN(C)CCN1C(=O)c2cccc3cc(N)cc(c23)C1=O [Amonafide] (100 nM) | 93.1 |
| CNNCc1ccc(C(=O)NC(C)C)cc1 [Procarbazine] (100 nM) | 101 |
| Nc1ncnc2c1c(COc1cccc(Cl)c1)nn2C1CCOCC1 (100 nM) | 103 |

test system: DU-4475; assay: as above; details: incubation time: 72 h
Procedure: as §1

| Structure (SMILES) | normalised response [%] |
| --- | --- |
| Nc1nc(OCc2cc(Br)cs2)c2[nH]cnc2n1 [Lomeguatrib] (100 nM) | 101 |
| CN1CCN(CCOc2cc(OC3CCOCC3)c3c(Nc4c(Cl)ccc5c4OCO5)ncnc3c2)CC1 [Saracatinib] (100 nM) | 93.9 |
| O=C(O)CCCc1ccc(N(CCCl)CCCl)cc1 [Chlorambucil] (100 nM) | 104 |
| c1ccc([C@H]2CN3CCSC3=N2)cc1 [Levamisole] (100 nM) | 107 |
| Cn1cncc1[C@@](N)(c1ccc(Cl)cc1)c1ccc2c(c1)c(-c1cccc(Cl)c1)cc(=O)n2C [Tipifarnib] (100 nM) | 77.8 |
| CC(C)(C#N)c1cc(Cn2cncn2)cc(C(C)(C)C#N)c1 [Anastrozole] (100 nM) | 107 |
| CN(C)CCN1C(=O)c2cccc3cc(N)cc(c23)C1=O [Amonafide] (100 nM) | 99.2 |
| CNNCc1ccc(C(=O)NC(C)C)cc1 [Procarbazine] (100 nM) | 101 |
| Nc1ncnc2c1c(COc1cccc(Cl)c1)nn2C1CCOCC1 (100 nM) | 100 |

test system: HCC1143; assay: as above; details: incubation time: 72 h
Procedure: as §1

| Structure (SMILES) | normalised response [%] |
| --- | --- |
| Nc1nc(OCc2cc(Br)cs2)c2[nH]cnc2n1 [Lomeguatrib] (100 nM) | 106 |
| CN1CCN(CCOc2cc(OC3CCOCC3)c3c(Nc4c(Cl)ccc5c4OCO5)ncnc3c2)CC1 [Saracatinib] (100 nM) | 96.1 |
| O=C(O)CCCc1ccc(N(CCCl)CCCl)cc1 [Chlorambucil] (100 nM) | 103 |
| c1ccc([C@H]2CN3CCSC3=N2)cc1 [Levamisole] (100 nM) | 102 |
| Cn1cncc1[C@@](N)(c1ccc(Cl)cc1)c1ccc2c(c1)c(-c1cccc(Cl)c1)cc(=O)n2C [Tipifarnib] (100 nM) | 88.8 |
| CC(C)(C#N)c1cc(Cn2cncn2)cc(C(C)(C)C#N)c1 [Anastrozole] (100 nM) | 97 |
| CN(C)CCN1C(=O)c2cccc3cc(N)cc(c23)C1=O [Amonafide] (100 nM) | 100 |
| CNNCc1ccc(C(=O)NC(C)C)cc1 [Procarbazine] (100 nM) | 108 |
| Nc1ncnc2c1c(COc1cccc(Cl)c1)nn2C1CCOCC1 (100 nM) | 104 |

test system: HCC1599; assay: as above; details: incubation time: 72 h
Procedure: as §1

| Structure (SMILES) | normalised response [%] |
| --- | --- |
| Nc1nc(OCc2cc(Br)cs2)c2[nH]cnc2n1 [Lomeguatrib] (100 nM) | 111 |
| CN1CCN(CCOc2cc(OC3CCOCC3)c3c(Nc4c(Cl)ccc5c4OCO5)ncnc3c2)CC1 [Saracatinib] (100 nM) | 111 |
| O=C(O)CCCc1ccc(N(CCCl)CCCl)cc1 [Chlorambucil] (100 nM) | 100 |
| c1ccc([C@H]2CN3CCSC3=N2)cc1 [Levamisole] (100 nM) | 106 |
| Cn1cncc1[C@@](N)(c1ccc(Cl)cc1)c1ccc2c(c1)c(-c1cccc(Cl)c1)cc(=O)n2C [Tipifarnib] (100 nM) | 91.5 |
| CC(C)(C#N)c1cc(Cn2cncn2)cc(C(C)(C)C#N)c1 [Anastrozole] (100 nM) | 100 |
| CN(C)CCN1C(=O)c2cccc3cc(N)cc(c23)C1=O [Amonafide] (100 nM) | 74.9 |
| CNNCc1ccc(C(=O)NC(C)C)cc1 [Procarbazine] (100 nM) | 107 |
| Nc1ncnc2c1c(COc1cccc(Cl)c1)nn2C1CCOCC1 (100 nM) | 102 |

test system: HCC1937; assay: as above; details: incubation time: 72 h
Procedure: as §1

| Structure (SMILES) | normalised response [%] |
| --- | --- |
| Nc1nc(OCc2cc(Br)cs2)c2[nH]cnc2n1 [Lomeguatrib] (100 nM) | 101 |
| CN1CCN(CCOc2cc(OC3CCOCC3)c3c(Nc4c(Cl)ccc5c4OCO5)ncnc3c2)CC1 [Saracatinib] (100 nM) | 94.2 |
| O=C(O)CCCc1ccc(N(CCCl)CCCl)cc1 [Chlorambucil] (100 nM) | 94 |
| c1ccc([C@H]2CN3CCSC3=N2)cc1 [Levamisole] (100 nM) | 96.8 |
| Cn1cncc1[C@@](N)(c1ccc(Cl)cc1)c1ccc2c(c1)c(-c1cccc(Cl)c1)cc(=O)n2C [Tipifarnib] (100 nM) | 80.8 |
| CC(C)(C#N)c1cc(Cn2cncn2)cc(C(C)(C)C#N)c1 [Anastrozole] (100 nM) | 95.3 |
| CN(C)CCN1C(=O)c2cccc3cc(N)cc(c23)C1=O [Amonafide] (100 nM) | 98.8 |
| CNNCc1ccc(C(=O)NC(C)C)cc1 [Procarbazine] (100 nM) | 103 |
| Nc1ncnc2c1c(COc1cccc(Cl)c1)nn2C1CCOCC1 (100 nM) | 95.5 |

test system: HDQ-P1; assay: as above; details: incubation time: 72 h
Procedure: as §1

| Structure (SMILES) | normalised response [%] |
| --- | --- |
| Nc1nc(OCc2cc(Br)cs2)c2[nH]cnc2n1 [Lomeguatrib] (100 nM) | 106 |

Source: the supplement of paper PMC4862054
